One assay deals with T1, PI3K beta (Homo sapiens, UniProt P42338).
T1 construct: for the full-length p110-b subunit are generated and fused by overlapping PCR; p85(iSH2) fusion partner (see partner chain) (N); His tag (C); made in house; host or cells: baculovirus; Tn5 (Trichoplusia ni) or TiniPro insect cells
Briefly: PI3K beta kinase assay (Kinase-Glo luminescence). It counts as biochemical. A digest of the protocol: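 Residual ATP after a 60 min room-temperature reaction is quantified by Kinase-Glo luminescence. Enzyme: 25 nM BV-949 (p85 iSH2–linker–full-length p110β); substrates 1 μM ATP, 10 μg/mL PI; buffer Tris pH 7.5, MgCl2, NaCl, CHAPS, DTT. Eight concentrations per compound, four-parameter logistic IC50.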

The test system of assay [1] is PKB Ser473 phosphorylation in Rat1-myr-HA-p110 delta cells. Briefly: Reverse protein array assay, PKB Ser473 phosphorylation in Rat1-myr-p110 delta cells. The note with it: read-out: p-PKB IC50. Type of assay: cell-based. A digest of the protocol:
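Rat1 cells expressing myristoylated HA-tagged p110 alpha, beta or delta were plated for at least 20 h, then exposed to 8-step serial compound dilutions (0.2% DMSO final) for 30 min at 37 °C. Lysates were spotted at four dilutions on protein microarrays, and relative fluorescence intensity of phospho-Ser473 PKB was calculated.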

The next assay deals with T2, PI3K alpha (Homo sapiens, UniProt P42336).
T2 construct: p85(iSH2) fusion partner (see partner chain) (N); His tag (C); made in house; host or cells: baculovirus; Tn5 (Trichoplusia ni) or TiniPro insect cells
T2 sequence (P42336 with tags, fused parts or gaps limits assumed): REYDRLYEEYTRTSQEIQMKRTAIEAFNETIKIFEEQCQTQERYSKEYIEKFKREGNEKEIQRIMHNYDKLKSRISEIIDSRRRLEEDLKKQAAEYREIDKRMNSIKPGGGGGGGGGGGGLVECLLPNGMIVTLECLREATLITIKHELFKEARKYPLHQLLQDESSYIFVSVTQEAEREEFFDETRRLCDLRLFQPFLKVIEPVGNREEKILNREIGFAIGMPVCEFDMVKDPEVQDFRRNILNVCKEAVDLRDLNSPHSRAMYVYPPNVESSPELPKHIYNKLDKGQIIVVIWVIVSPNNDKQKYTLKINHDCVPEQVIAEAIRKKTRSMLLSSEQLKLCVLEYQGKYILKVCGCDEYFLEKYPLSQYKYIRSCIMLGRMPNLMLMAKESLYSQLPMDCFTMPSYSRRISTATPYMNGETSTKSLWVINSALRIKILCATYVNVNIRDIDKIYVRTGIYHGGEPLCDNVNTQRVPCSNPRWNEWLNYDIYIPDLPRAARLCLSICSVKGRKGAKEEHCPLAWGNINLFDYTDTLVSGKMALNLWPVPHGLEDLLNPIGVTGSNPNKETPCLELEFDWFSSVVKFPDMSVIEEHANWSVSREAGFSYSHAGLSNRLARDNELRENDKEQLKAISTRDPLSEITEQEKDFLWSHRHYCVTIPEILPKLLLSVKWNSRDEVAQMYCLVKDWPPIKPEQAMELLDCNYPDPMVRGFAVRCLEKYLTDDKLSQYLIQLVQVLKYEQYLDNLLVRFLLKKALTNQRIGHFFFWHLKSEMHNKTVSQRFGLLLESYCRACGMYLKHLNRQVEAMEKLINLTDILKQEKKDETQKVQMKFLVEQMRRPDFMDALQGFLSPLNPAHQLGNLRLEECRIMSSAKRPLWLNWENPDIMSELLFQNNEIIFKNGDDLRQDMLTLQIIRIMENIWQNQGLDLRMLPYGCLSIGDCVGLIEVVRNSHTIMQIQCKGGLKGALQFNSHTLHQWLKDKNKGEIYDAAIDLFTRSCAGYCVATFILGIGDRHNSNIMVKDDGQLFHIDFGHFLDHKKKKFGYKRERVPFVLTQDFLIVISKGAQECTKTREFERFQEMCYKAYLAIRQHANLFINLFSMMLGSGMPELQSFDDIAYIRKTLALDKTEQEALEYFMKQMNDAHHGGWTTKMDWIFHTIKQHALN
Briefly: PI3K alpha kinase assay (Kinase-Glo luminescence). It counts as biochemical. In short, it runs like this: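 Read-out: Kinase-Glo luminescence of ATP left after 60 min at room temperature. Conditions: 10 nM PI3Kα (EMV B1075), 1 μM ATP, 10 μg/mL PI substrate, Tris pH 7.5 buffer with MgCl2, NaCl, CHAPS and DTT. IC50s fitted with a four-parameter logistic model.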

22 molecules from patent US20140005163A1 (NOVARTIS AG, priority 2010, published 2014) can be followed below.

Molecules are shown by their SMILES.

T1 sequence (P42338 with tags, fused parts or gaps limits assumed): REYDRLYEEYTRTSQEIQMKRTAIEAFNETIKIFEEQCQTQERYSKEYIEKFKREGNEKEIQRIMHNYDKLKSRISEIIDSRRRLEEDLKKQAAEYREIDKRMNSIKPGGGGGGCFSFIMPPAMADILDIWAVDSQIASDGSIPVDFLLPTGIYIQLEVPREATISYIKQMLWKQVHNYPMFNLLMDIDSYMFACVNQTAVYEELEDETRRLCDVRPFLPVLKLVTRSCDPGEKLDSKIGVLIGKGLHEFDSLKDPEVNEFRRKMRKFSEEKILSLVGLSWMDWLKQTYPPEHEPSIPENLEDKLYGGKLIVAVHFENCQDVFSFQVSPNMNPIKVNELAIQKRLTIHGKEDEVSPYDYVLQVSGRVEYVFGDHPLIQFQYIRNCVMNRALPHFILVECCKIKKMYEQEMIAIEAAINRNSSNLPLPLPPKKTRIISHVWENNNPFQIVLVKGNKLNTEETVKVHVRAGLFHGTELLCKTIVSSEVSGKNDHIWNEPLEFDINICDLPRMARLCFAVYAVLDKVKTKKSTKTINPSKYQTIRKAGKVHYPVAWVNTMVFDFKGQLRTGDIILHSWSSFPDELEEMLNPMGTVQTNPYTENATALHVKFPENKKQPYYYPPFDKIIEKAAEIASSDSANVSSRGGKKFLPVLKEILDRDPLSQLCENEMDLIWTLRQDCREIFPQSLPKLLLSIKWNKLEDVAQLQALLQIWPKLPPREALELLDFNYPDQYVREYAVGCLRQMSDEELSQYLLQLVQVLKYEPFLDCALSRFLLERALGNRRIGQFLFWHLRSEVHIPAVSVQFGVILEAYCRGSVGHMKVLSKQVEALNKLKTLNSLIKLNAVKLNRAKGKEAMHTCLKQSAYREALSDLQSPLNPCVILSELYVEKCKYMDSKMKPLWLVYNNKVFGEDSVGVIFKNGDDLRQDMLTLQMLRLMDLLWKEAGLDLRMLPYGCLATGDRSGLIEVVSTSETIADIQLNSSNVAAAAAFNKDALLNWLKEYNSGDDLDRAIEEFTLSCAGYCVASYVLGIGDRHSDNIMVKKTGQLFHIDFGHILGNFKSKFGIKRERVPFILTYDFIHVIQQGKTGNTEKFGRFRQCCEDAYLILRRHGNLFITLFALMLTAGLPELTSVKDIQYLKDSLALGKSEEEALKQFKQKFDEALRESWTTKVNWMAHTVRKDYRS

For the molecule `Cc1nn(C)cc1-n1c(=O)n(C)c2cnc3ccc(-c4cc(O)cc(C(F)(F)F)c4)cc3c21` [Example 34, 1-(1,3-Dimethyl-1H-pyrazol-4-yl)-8-(3-hydroxy-5-trifluoromethyl-phenyl)-3-methyl-1,3-dihydro-imidazo[4,5-c]quinolin-2-one], the IC50 on PI3K beta worked out at 15 nM; in assay [1] it was 202 nM; at PI3K alpha, 7 nM.
The matching figures for `Cc1nn(C)cc1-n1c(=O)n(C)c2cnc3ccc(-c4cnc5[nH]ccc5c4)cc3c21` [Example 36, 1-(1,3-dimethyl-1H-pyrazol-4-yl)-3-methyl-8-(1H-pyrrolo[2,3-b]pyridin-5-yl)-1,3-dihydro-imidazo[4,5-c]quinolin-2-one]: 32 nM, 8 nM and 9 nM.
On the same counts, the results for `CNC(=O)c1ccc(-c2ccc3ncc4c(c3c2)n(-c2cn(C)nc2Cl)c(=O)n4C)cc1` [Example 43.2, 4-[1-(3-Chloro-1-methyl-1H-pyrazol-4-yl)-3-methyl-2-oxo-2,3-dihydro-1H-imidazol[4,5-c]quinolin-8-yl]-N-methyl-benzamide] are 56 nM, 12 nM and 8 nM.
The matching figures for `CCCOc1ccc(-c2ccc3ncc4c(c3c2)n(-c2cn(C)nc2C)c(=O)n4C)cn1` [Example 55, 1-(1,3-Dimethyl-1H-pyrazol-4-yl)-3-methyl-8-(6-propoxy-pyridin-3-yl)-1,3-dihydro-imidazo[4,5-c]quinolin-2-one]: 951 nM, 54 nM and 56 nM.
Consider `CCOc1cccc(-c2ccc3ncc4c(c3c2)n(-c2cn(C)nc2C)c(=O)n4C)c1` [Example 57, 1-(1,3-Dimethyl-1H-pyrazol-4-yl)-8-(3-ethoxy-phenyl)-3-methyl-1,3-dihydro-imidazo[4,5-c]quinolin-2-one], for which the 50% inhibitory concentration (IC50) came out at 215 nM on PI3K beta, 288 nM in assay [1] and 38 nM on PI3K alpha.
On the same counts, the results for `COc1ncc(-c2ccc3ncc4c(c3c2)n(-c2cn(C)nc2C)c(=O)n4C)cc1N(C)C(C)=O` [Example 62, N-{5-[1-(1,3-Dimethyl-1H-pyrazol-4-yl)-3-methyl-2-oxo-2,3-dihydro-1H-imidazo[4,5-c]quinolin-8-yl]-2-methoxy-pyridin-3-yl}-N-methyl-acetamide] are 83 nM, 276 nM and 61 nM.
The matching figures for `Cc1ncc(-c2ccc3ncc4c(c3c2)n(-c2cn(C)nc2C)c(=O)n4C)cc1N(C)S(C)(=O)=O` [Example 75, N-{5-[1-(1,3-Dimethyl-1H-pyrazol-4-yl)-3-methyl-2-oxo-2,3-dihydro-1H-imidazo[4,5-c]quinolin-8-yl]-2-methyl-pyridin-3-yl}-N-methyl-methanesulfonamide]: 37 nM, 177 nM and 14 nM.
On the same counts, the results for `CNc1ncc(-c2ccc3ncc4c(c3c2)n(-c2c(C)nn(C)c2C)c(=O)n4C)cn1` [Example 80.2] are 288 nM, 323 nM and 42 nM.
Turning to `Cc1nn(C)cc1-n1c(=O)n(C)c2cnc3ccc(-c4cnc(N)nc4)cc3c21` [Example 81.1, 8-(2-Amino-pyrimidin-5-yl)-1-(1,3-dimethyl-1H-pyrazol-4-yl)-3-methyl-1,3-dihydro-imidazo[4,5-c]quinolin-2-one], the IC50 amounted to 91 nM on PI3K beta, 11 nM in assay [1] and 75 nM at PI3K alpha.
The matching figures for `COCCOc1cc(-c2ccc3ncc4c(c3c2)n(-c2cn(C)nc2C)c(=O)n4C)cnc1C` [Example 86.2, 1-(1,3-Dimethyl-1H-pyrazol-4-yl)-8-[5-(2-methoxy-ethoxy)-6-methyl-pyridin-3-yl]-3-methyl-1,3-dihydro-imidazo[4,5-c]quinolin-2-one]: 21 nM, 57 nM and 9 nM.
The matching figures for `CCNc1cc(-c2ccc3ncc4c(c3c2)n(-c2cn(C)nc2C)c(=O)n4C)cnc1C` [Example 87.1, 1-(1,3-Dimethyl-1H-pyrazol-4-yl)-8-(5-ethylamino-6-methyl-pyridin-3-yl)-3-methyl-1,3-dihydro-imidazo[4,5-c]quinolin-2-one]: 21 nM, below 5 nM and 14 nM.
On the same counts, the results for `CCNc1cc(-c2ccc3ncc4c(c3c2)n(-c2c(C)nn(CCOC)c2C)c(=O)n4C)cnc1C` [Example 87.4, 8-(5-Ethylamino-6-methyl-pyridin-3-yl)-1-[1-(2-methoxy-ethyl)-3,5-dimethyl-1H-pyrazol-4-yl]-3-methyl-1,3-dihydro-imidazo[4,5-c]quinolin-2-one] are 93 nM, 91 nM and 42 nM.
For the molecule `Cc1ncc(-c2ccc3ncc4c(c3c2)n(-c2cn(C)nc2C)c(=O)n4C)cc1N` [Example 88.2, 8-(5-Amino-6-methyl-pyridin-3-yl)-1-(1,3-dimethyl-1H-pyrazol-4-yl)-3-methyl-1,3-dihydro-imidazo[4,5-c]quinolin-2-one], the IC50 at PI3K beta worked out at 68 nM; in assay [1], 59 nM; on PI3K alpha, 17 nM.
On the same counts, the results for `CCNc1cc(-c2ccc3ncc4c(c3c2)n(-c2cn(C)nc2Cl)c(=O)n4C)cnc1OC` [Example 90.1, 1-(3-Chloro-1-methyl-1H-pyrazol-4-yl)-8-(5-ethylamino-6-methoxy-pyridin-3-yl)-3-methyl-1,3-dihydro-imidazo[4,5-c]quinolin-2-one] are 39 nM, below 5 nM and 43 nM.
As to `Cc1nn(C)cc1-n1c(=O)n(C)c2cnc3ccc(-c4ccc(N5CCN(C)CC5)nc4)cc3c21` [Example 96, 1-(1,3-Dimethyl-1H-pyrazol-4-yl)-3-methyl-8-[6-(4-methyl-piperazin-1-yl)-pyridin-3-yl]-1,3-dihydro-imidazo[4,5-c]quinolin-2-one], the figures for the IC50 (at PI3K beta; in assay [1]; on PI3K alpha) were 544 nM, 60 nM and 47 nM, respectively.
On the same counts, the results for `COc1ccc(-c2ccc3ncc4c(c3c2)n(-c2cn(CC(=O)N(C)C)nc2C)c(=O)n4C)cn1` [Example 102, 2-{4-[8-(6-Methoxy-pyridin-3-yl)-3-methyl-2-oxo-2,3-dihydro-imidazo[4,5-c]quinolin-1-yl]-3-methyl-pyrazol-1-yl}-N,N-dimethyl-acetamide] are 291 nM, 78 nM and 13 nM.
In the case of `Cc1nn(C(C)C)cc1-n1c(=O)n(C)c2cnc3ccc(-c4ccc(C(N)=O)nc4)cc3c21` [Example 112, 5-[1-(1-Isopropyl-3-methyl-1H-pyrazol-4-yl)-3-methyl-2-oxo-2,3-dihydro-1H-imidazo[4,5-c]quinolin-8-yl]-pyridine-2-carboxylic acid amide], the 50% inhibitory concentration (IC50) at PI3K beta is 391 nM; in assay [1] it was 69 nM; on PI3K alpha it was 79 nM.
On the same counts, the results for `Cc1nn(C)cc1-n1c(=O)n(C)c2cnc3ccc(-c4cccc(N(C)S(C)(=O)=O)c4)cc3c21` [Example 117, N-{3-[1-(1,3-Dimethyl-1H-pyrazol-4-yl)-3-methyl-2-oxo-2,3-dihydro-1H-imidazo[4,5-c]quinolin-8-yl]-phenyl}-N-methyl-methanesulfonamide] are 907 nM, 425 nM and 58 nM.
On the same counts, the results for `CNc1ccc(-c2ccc3ncc4c(c3c2)n(-c2cn(C(C)C)nc2C)c(=O)n4C)cn1` [Example 118.1, 1-(1-isopropyl-3-methyl-1H-pyrazol-4-yl)-3-methyl-8-(6-methylamino-pyridin-3-yl)-1,3-dihydro-imidazo[4,5-c]quinolin-2-one] are 302 nM, 12 nM and 26 nM.
The matching figures for `CNc1ccc(-c2ccc3ncc4c(c3c2)n(-c2cn(CC(=O)N(C)C)nc2C)c(=O)n4C)cn1` [Example 118.3, N,N-Dimethyl-2-{3-methyl-4-[3-methyl-8-(6-methylamino-pyridin-3-yl)-2-oxo-2,3-dihydro-imidazo[4,5-c]quinolin-1-yl]-pyrazol-1-yl}-acetamide]: 695 nM, 396 nM and 16 nM.
For the molecule `CNc1ccc(-c2ccc3ncc4c(c3c2)n(-c2cn(C)nc2Cl)c(=O)n4C)cn1` [Example 118.5, 1-(3-Chloro-1-methyl-1H-pyrazol-4-yl)-3-methyl-8-(6-methylamino-pyridin-3-yl)-1,3-dihydro-imidazo[4,5-c]quinolin-2-one], the IC50 on PI3K beta came out at 41 nM; in assay [1], 6 nM; at PI3K alpha, 9 nM.
The matching figures for `CCNc1cncc(-c2ccc3ncc4c(c3c2)n(-c2cn(C)nc2C)c(=O)n4C)c1` [Example 122, 1-(1,3-Dimethyl-1H-pyrazol-4-yl)-8-(5-ethylamino-pyridin-3-yl)-3-methyl-1,3-dihydro-imidazo[4,5-c]quinolin-2-one]: 22 nM, 56 nM and 14 nM.

Broadly, the IC50 is the point on the concentration scale where inhibition reaches its midpoint.
